{"source": "paper PMC13050480", "about": "“Preclinical Development of GT-14, a Novel Inhibitor of Gαi2 Protein: Comprehensive Evaluation of Physicochemical, Metabolic Characteristics and Tissue Distribution” (The AAPS journal, 2025)", "key": {"[1]": {"experiment": "Stability of GT-14 in rat urine", "format": "in vitro ADME", "settings": "for Stability at -20 °C (48 hrs) in rat urine: n=5, in %", "protocol": "Blank rat urine was spiked with GT-14 at conc. of 25, 50, 500 and 1000 ng/mL. The samples were kept at -20°C for 48 hours (n=5, Mean ± SD)"}, "[2]": {"experiment": "Tissue distribution and urinary excretion after IV dose in rats", "format": "in vivo, Sprague Dawley rats", "protocol": "Each tissue sample was weighed and homogenized in a clean scintillation vial with 0.9% saline (1:1, w/v) using the VWR 200 Homogenizer to make tissue homogenates. Homogenization was carried out on ice at a speed of 5000 rpm for all tissues except the prostate and kidney (10,000 rpm). A five-point calibration curve was prepared for the different tissues in the range of 0.39–25 ng/g. One hundred (100) μL of tissue homogenate samples were mixed with 10 μL of Griseofulvin (1.5 μg/mL, IS). The samples were vortexed for 30 seconds which was followed by protein precipitation with methanol (300 μL), to extract GT-14. The samples were again vortexed for 30 seconds, and then shaken on an automatic shaker for 5 minutes, followed by centrifugation at 14000 rpm for 20 minutes at 4°C. The supernatant was transferred to a sample vial, and a 5 μL aliquot was injected for LC-MS/MS analysis.\nHealthy male Sprague Dawley rats (250–300 g) were used to evaluate the plasma pharmacokinetics and tissue distribution of GT-14, with approved animal protocol from the Institutional Animal Care and Use Committee (IACUC) at Texas Southern University. The jugular vein of rats was cannulated in-house the day before intravenous dosing and blood sample collection. GT-14 was administered intravenously as a co-solvent formulation via the jugular vein cannula at a dose of 5 mg/kg. Serial blood samples (100 μL) were collected up to 24 h post-dose. The blood samples were centrifuged at 3000 rpm for 10 min at 4°C, and plasma was collected and stored at −80°C till analysis. Urine samples were also collected at intervals of 0–7 and 7–24 hrs. using metabolic cages and stored at −20°C until analysis. At 24 hr, animals were sacrificed and organs such as prostate, liver, lungs, spleen, brain, kidneys, and heart were collected, following whole body perfusion (transcardiac perfusion) with normal saline to reduce residual blood in tissues. Plasma and tissue homogenate samples were processed (described in section “Analytical Assay”) and analyzed by LC-MS/MS. Tissue concentrations were calculated using the following formula: Tissueconcentrationng/g=CHTS×VHTS/WTS where, CHTS is the concentration (ng/mL) of GT-14 in the homogenized tissue sample; VHTS is the volume of homogenized tissue sample (mL) and WTS is the weight of tissue sample (g)."}, "[3]": {"experiment": "pH-dependent stability in USP buffers", "format": "physicochemical", "settings": "25°C", "protocol": "The pH-dependent stability of GT-14 was assessed in aqueous media of pH ranging from 1 to 10 at room temperature. Standard USP buffers ([11]) were prepared and used for this experiment. Details of buffer solutions are provided in Table I. For the pH solubility profile, GT-14 solid was added in excess amounts in various buffer solutions.\nTo determine the stability of GT-14 in different buffers, GT-14 stock solution (prepared in ACN at a concentration of 75 μg/mL) was added to different buffers to achieve a target concentration of 5 μg/mL. Each buffer solution was prepared in triplicate. All solutions were put on the shaker bath maintained at 25°C. Aliquots were withdrawn at predetermined time points (0, 24, 72, 96, and 120 hrs), centrifuged at 15,000 rpm for 10 min, diluted with Water: ACN (50:50, v/v), and analyzed by the UPLC assay."}, "[4]": {"settings": "rat, IV 5 mg/kg, 24 hr post dose, 5 mg/kg"}}, "note": "Entries after “also recorded” stand apart in the source; their conditions may differ. Read-outs that look alike come from different tables or passages of the source.", "data": [{"compound": "C/C(=N\\c1ccc(O)cc1)c1cc2ccccc2n1C", "note": "[GT-14, (E)-4-((1-(1-methyl-1H-indol-2-yl)ethylidene)amino)phenol]", "values": [{"measurement": "stability in rat urine (in words)", "setting": "[1]", "result": "stable"}, {"measurement": "Stability at -20 °C (48 hrs) in rat urine", "setting": "[1]; 25 ng/ml", "result": "109.28 ± 2.57"}, {"measurement": "Stability at -20 °C (48 hrs) in rat urine", "setting": "[1]; 50 ng/ml", "result": "110.25 ± 2.36"}, {"measurement": "Stability at -20 °C (48 hrs) in rat urine", "setting": "[1]; 500 ng/ml", "result": "105.71 ± 3.76"}, {"measurement": "Stability at -20 °C (48 hrs) in rat urine", "setting": "[1]; 1000 ng/ml", "result": "101.43 ± 2.58"}, {"measurement": "drug cleared from plasma", "setting": "[2]; 24-h time point post single dose injection", "result": "~99", "unit": "%"}, {"measurement": "concentration at 24 h", "setting": "[2]; male, Sprague Dawley, heart, rat, IV 5 mg/kg, 24 hr post dose, read-out: Tissue concentration, heart", "result": "0.13 ± 0.06", "unit": "ng/g"}, {"measurement": "concentration at 24 h", "setting": "[2]; male, Sprague Dawley, kidney, rat, IV 5 mg/kg, 24 hr post dose, read-out: Tissue concentration, kidney", "result": "0.52 ± 0.61", "unit": "ng/g"}, {"measurement": "concentration at 24 h", "setting": "[2]; male, Sprague Dawley, liver, rat, IV 5 mg/kg, 24 hr post dose, read-out: Tissue concentration, liver", "result": "0.13 ± 0.01", "unit": "ng/g"}, {"measurement": "concentration at 24 h", "setting": "[2]; male, Sprague Dawley, lung, rat, IV 5 mg/kg, 24 hr post dose, read-out: Tissue concentration, lung", "result": "0.55 ± 0.15", "unit": "ng/g"}, {"measurement": "concentration at 24 h", "setting": "[2]; male, Sprague Dawley, plasma, rat, IV 5 mg/kg, 24 hr post dose, read-out: Plasma concentration", "result": "9.62 ± 2.82", "unit": "ng/mL"}, {"measurement": "concentration at 24 h", "setting": "[2]; male, Sprague Dawley, prostate, rat, IV 5 mg/kg, 24 hr post dose, read-out: Tissue concentration, prostate", "result": "2.19 ± 1.26", "unit": "ng/g"}, {"measurement": "Kp at 24 h", "setting": "[2]; male, Sprague Dawley, rat, intravenous, 5 mg/kg, all tissues, 24 hr post dose, read-out: tissue-to-plasma ratios", "result": "< 1"}, {"measurement": "GT-14 in brain", "setting": "[2]; [4]", "result": "not detected; also recorded: detected in all sampled tissues except the brain"}, {"measurement": "Tissue distribution (rank order, accumulation)", "setting": "[2]; [4]", "result": "highest concentration of GT-14 in the prostate, followed by the kidneys, lungs, heart, and liver; also recorded: High accumulation in prostate"}, {"measurement": "GT-14 in urine", "setting": "[2]; rat, IV 5 mg/kg, urine 0–7 and 7–24 hrs", "result": "not detected"}, {"measurement": "pH stability (in words)", "setting": "[3]; acidic to neutral pH 1.2–7.4, 120 hours", "result": "relatively stable"}, {"measurement": "pH stability (in words)", "setting": "[3]; alkaline pH 9–10, 120 hours", "result": "significant degradation; also recorded: degrading; also recorded: degradation is significantly pronounced"}, {"measurement": "pH stability, % remaining", "setting": "[3]; pH 1.2–7.4, up to 120 hours", "result": "> 90", "unit": "% remaining"}]}]}
